# Test results as given in article PMC11462627, “SAL0114: a novel deuterated dextromethorphan-bupropion combination with improved antidepressant efficacy and safety profile” (Frontiers in Pharmacology, 2024).
# Assays:
# ICR mice = assay: Forced swim test; type: in vivo; conditions: FST, oral, 1 h after administration, deDM 10 and 18 mg/kg, BUP 50 mg/kg, deDM + BUP 10 + 50 and 18 + 50 mg/kg
# Experimental: The mouse forced swim test was performed in a way similar to that published previously by Nguyen et al. ([Nguyen et al., 2017]) with some modifications. […] All compounds were administered orally via gavage at a volume of 10 mL/kg body weight, with the vehicle group receiving an equivalent volume of saline. 1 h after administration, mice underwent the forced swim test (FST), a widely used behavioral assay for evaluating antidepressant-like effects. Each mouse was individually placed in a transparent cylindrical tank filled with water (depth: 18 cm, temperature: 25°C ± 1°C) for a 6-min test session. The initial 2 min served as the acclimatization period and was not scored. Floating time during the subsequent 4 min was measured using ANY-Maze Version 4.63 video tracking software (Stoelting Co., Illinois, United States). Floating was defined as the minimum movement required to keep the animal’s head above water. Floating time (%) = floatting time(s)/240 s. The ANY-Maze software parameters were set as follows: acclimatization period = 120 s, test duration = 240 s, minimum immobility time = 2 s, and immobility sensitivity = 75%. To maintain consistent conditions, water was changed between the animals. […]
# Sprague-Dawley rats = assay: Reserpine-induced hypothermia in rats; type: in vivo; conditions: oral, 30 min after treatment
# Experimental: A reserpine-induced hypothermia test was performed according to the method described by Rojas-Corrales et al. ([Rojas-Corrales et al., 2004]; [Dhamija et al., 2017]), with some modifications. 80 male Sprague-Dawley rats were administered an intraperitoneal injection of reserpine (4 mg/kg). 18 h after the injection, rectal temperatures were measured using a rectal probe connected to a thermometer (MC-347, Omron Healthcare, Dalian, China). Rats with body temperatures not exceeding 34.5°C were considered successfully modeled. […] An additional group of ten rats not treated with reserpine served as the normal control. After the group assignment, the second phase of compound administration was initiated. The normal and model control groups received oral saline (10 mL/kg), whereas the other groups received their respective compounds orally at the specified doses, all in an equivalent volume (10 mL/kg). Rectal temperatures were measured 30 min after treatment to assess the effect of compounds in each group on the reserpine-induced hypothermia model. All experimental procedures were conducted in strict accordance with guidelines approved by the Institutional Animal Care and Use Committee of Shenzhen Salubris Pharmaceuticals Co., Ltd. A P value of less than 0.05 was considered statistically significant for comparisons between groups.
# [1] = biological target: T1, norepinephrine transporter (Homo sapiens, UniProt P23975); assay: Norepinephrine transporter (NET) radioligand binding (3H-Nisoxetine); conditions: 3H-Nisoxetine competition, mean, n = 2; read-out: Ki, norepinephrine transporter
# T1 construct: purchased PerkinElmer, Inc RBHNETM400UA
# Experimental: The experiments were carried out in the Pharmaron laboratory, and the methods were referenced from previous studies with modifications ([Bylund and Toews, 1993]; [Galli et al., 1995]). Competitive binding of the compound and ^3H-Nisoxetine to NETs was assessed using a radioligand binding method. The ability of the compound to competitively bind to NET (Ki) was determined by detecting the signal value of the radioligand bound to the transporter using a Microbeta instrument (2450, Perkin Elmer, Massachusetts, United States).
# NMDA receptor = conditions: read-out: Ki, NMDA receptor; 3H-MK801 competition, rat brain membranes, mean, n = 4
# Experimental: Membrane preparation was performed as previously described ([Werling et al., 2007]). Briefly, the brains of male Sprague-Dawley rats were dissected for tissue collection. The tissue was then homogenized in ice-cold extraction solution and centrifuged at 40,000 × g for 10 min (minute). The supernatant was discarded, the precipitate was resuspended in extraction solution, and the above steps were repeated two times. Finally, the precipitate was resuspended in a 10-fold volume of resuspension solution and stored at −80°C. Protein concentration was determined using a PierceTM BCA Protein Assay Kit. The competitive binding of the compound and ^3H-MK801 to the NMDA receptor was evaluated utilizing the filtration binding method. This method involves washing unbound radioligands and subsequently quantifying the signal values of the radioligands bound to the NMDA receptor using a Microbeta instrument (catalog number: 2450, Perkin Elmer, Massachusetts, United States).
# [2] = Pharmacokinetic study in C57BL/6 mice; type: in vivo; conditions: plasma DM or deDM, C57BL/6 mice, oral, 20 mg/kg, mean ± SD
# Description: The assay was built in a way similar to that previously published by [Beconi et al. (2011)] with some modifications. A total of 36 male C57BL/6 mice, weighing between 20 and 22 g, were randomly divided into four groups of nine mice each. […] Mice in each group were numbered 1–9. Following the oral administration of the compounds in each group, blood was collected from the jugular vein at the specified time points, with three mice at each time point and two to three times for each mouse. 1–3 numbered mice had blood collection time points of 0.25, 1.5, and 7 h after the administration of the compounds, 4–6 numbered mice had blood collection time points of 0.5, 2, and 24 h after the administration of the compounds, and 7–9 numbered mice had blood collection time points of 1 and 5 h after the administration of the compounds. All blood samples were collected without anesthesia, and blood was collected in heparinized EP tubes. Plasma was obtained by centrifuging the blood at 10,000 rpm for 2 min at 4°C.
# T1 sequence (P23975 whole entry): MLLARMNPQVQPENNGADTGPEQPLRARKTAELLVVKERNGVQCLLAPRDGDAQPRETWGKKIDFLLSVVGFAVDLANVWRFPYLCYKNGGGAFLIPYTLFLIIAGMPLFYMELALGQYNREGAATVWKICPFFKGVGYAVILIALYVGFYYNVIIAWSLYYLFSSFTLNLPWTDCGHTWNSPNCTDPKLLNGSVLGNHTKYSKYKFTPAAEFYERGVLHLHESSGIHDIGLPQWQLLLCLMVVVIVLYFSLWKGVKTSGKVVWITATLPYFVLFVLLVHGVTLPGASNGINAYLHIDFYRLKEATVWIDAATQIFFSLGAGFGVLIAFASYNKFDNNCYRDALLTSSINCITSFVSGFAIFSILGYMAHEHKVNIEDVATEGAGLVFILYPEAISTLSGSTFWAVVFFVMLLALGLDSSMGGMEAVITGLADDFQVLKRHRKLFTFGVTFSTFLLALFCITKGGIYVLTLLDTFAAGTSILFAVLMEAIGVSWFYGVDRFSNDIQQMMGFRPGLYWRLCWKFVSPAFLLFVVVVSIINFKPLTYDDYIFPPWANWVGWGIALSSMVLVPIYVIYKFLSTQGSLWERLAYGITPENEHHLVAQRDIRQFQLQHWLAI
substance,measurement,setting,value
deuterated dextromethorphan [deDM],floating time compared to the vehicle group,ICR mice,did not significantly reduce the floating time
same,body temperature compared with the model (vehicle) group,"Sprague-Dawley rats; reserpine 4 mg/kg i.p. rats, BUP 40 mg/kg, deDM 5 and 10 mg/kg, deDM + BUP 5 + 40 and 10 + 40 mg/kg",increased the body temperature of model animals in a dose-dependent manner
same,"body temperature, high dose compared with the model (vehicle) group","Sprague-Dawley rats; reserpine rats, 10 mg/kg",reaching a statistically significant difference
same,Ki,[1],17.1 µM
same,Ki,NMDA receptor,1.9 µM
same,AUC0-last,[2],387 ± 163 ng·h/mL
same,Cmax,[2],269 ± 83 ng/mL
